Measured values from patent publication US8722910B2, “Diyne compositions” (Evolva AG, priority 2009, dated 2014).
In brackets after ≈: the same amount, converted by molar mass. Where two headings read alike, the source gives them in different places.

Legend:
[1] = system: Epidermophyton floccosum; assay: In vitro antifungal activity vs. dermatophytes (MIC/MFC); format: cell-based; settings: Epidermophyton floccosum (n = 15)
[2] = system: M. cookie; assay: as above; format: cell-based; settings: M. cookie (n = 1)
[3] = system: M. gallinae; assay: as above; format: cell-based; settings: M. gallinae (n = 1)
[4] = system: C. albicans SC5314; assay: MIC versus reference Candida strains (broth micro dilution); format: cell-based
[5] = system: C. lusitaniae; assay: In vitro antifungal activity vs. yeasts (MIC/MFC); format: cell-based; settings: Clavispora lusitaniae, C. lusitaniae (n = 1)
[6] = system: C. krusei; assay: In vitro antifungal activity vs. yeasts (MIC/MFC); format: cell-based; settings: Pichia kudriavzevii, C. krusei (n = 1)
[7] = system: yeasts; assay: MFC range over yeasts tested; format: cell-based, Candida and Malassezia strains; settings: Table 13 strains
Excerpt: The fungal isolates tested in this study to evaluate the antifungal activity of (Z)-14-([…]-11,13-diynoic acid, 14-([…]-11,13-diynoic acid, (Z)-14-([…]-11,13-diynoic acid, potassium salt and comparators are clinical isolates collected from patients and deposited at the culture collection of the Center for Medical Mycology. Tested isolates included: Candida albicans, C. glabrata, C. guilliermondii, C. krusei, C. lipolytica, C. lusitaniae, C. parapsilosis, C. tropicalis and Malassezia furfur. Dermatophyte strains included Trichophyton rubrum, T. mentagrophytes, T. tonsurans, T. terrestre, Epidermophyton floccosum, Microsporum canis, M. cookie, M. gallinae, M. gypseum, and M. vanbreuseghemii. […] The plates were then streaked with an inoculating loop to remove the cells from the drug source.

[8] = system: Staphylococcus aureus 29213; assay: In vitro Antibacterial Activity; format: cell-based; settings: read-out: MIC90
[9] = In vitro Mammalian Cell Cytotoxicity; format: cell-based; settings: human, HFF cells
[10] = system: Candida albicans; assay: Mouse vaginal infection, topical dosing; format: in vivo; settings: mice; topically 0.01% daily for five days
Procedure: The efficacy of compound III″ in vaginal infections of small mammals has been shown. Mice were vaginally infected with Candida albicans. Compound III″ was administered topically at 0.01% daily for five days. Fungal burden decreased 86% compared to the untreated control (see FIG. 14 showing vaginal fungal burden as determined by colony forming units (CFU) from vaginal lavage fluid).

[11] = system: C. albicans ATCC-24433; assay: MIC versus reference Candida strains (broth micro dilution); set-up: MICs (100% inhibition): unit not given beside the values; settings: for MIC: Candida albicans
[12] = system: C. albicans ATCC-90028; assay: as above; set-up: MICs (100% inhibition): unit not given beside the values; settings: for MIC: Candida albicans
[13] = system: C. glabrata ATCC-90030; assay: as above; set-up: MICs (100% inhibition): unit not given beside the values; settings: for MIC: Nakaseomyces glabratus
[14] = system: C. krusei ATCC-6258; assay: as above; set-up: MICs (100% inhibition): unit not given beside the values; settings: for MIC: Pichia kudriavzevii
[15] = system: C. parapsilosis ATCC-22019; assay: as above; set-up: MICs (100% inhibition): unit not given beside the values; settings: for MIC: Lodderomyces parapsilosis
[16] = system: C. parapsilosis ATCC-90018; assay: as above; set-up: MICs (100% inhibition): unit not given beside the values; settings: for MIC: Lodderomyces parapsilosis
[17] = system: C. tropicalis ATCC-750; assay: as above; set-up: MICs (100% inhibition): unit not given beside the values; settings: for MIC: Candida tropicalis
[18] = system: C. albicans; assay: Susceptibility of clinical isolates (MIC, broth dilution); format: cell-based
Procedure: (§1) The efficacy of compound IV″ was investigated on 563 clinical isolates of 33 human fungal pathogens. […] For species with n≧10, the MIC90 (MIC, minimal inhibitory concentration) is given as ng/ml. For species with n≦10, the MIC range is given as ng/ml. 24 h and 48 h reads are indicated (Table 1).
(§2) The in vitro efficacy of antifungal compounds is determined in susceptibility assays, which are indicative for the spectrum and potency of a compound. Susceptibilities are reported as minimal inhibitory concentrations (MIC, as ng/ml or μg/ml) required to inhibit growth to a defined degree compared to the drug free control. The MIC90 defines the MIC required to inhibit growth for ≧90% of the strains of a population tested.
(§3) The MIC90 was calculated for the indicated species.

[19] = system: C. krusei; assay: as above; format: cell-based
Procedure: as §1, §2, §3

[20] = system: B. dermatitidis; assay: Susceptibility of clinical dimorphic fungi (MIC); format: cell-based; settings: B. dermatitidis (n = 30)

## O=C(O)CCCCCCC/C=C\C#CC#Cc1ccco1 [Compound III″]
[1]; 96 h, 35° C., 4 days
  MIC: < 0.06 ng/mL
[1]
  MFC: 15 ng/mL (≈ 0.0528 µM)
[1]; MIC90, 48 h
  MIC90/MIC range 48 h: <0.06 ng/mL
[2]; 96 h, 35° C., 4 days
  MIC: 1000 ng/mL (≈ 3.52 µM)
[2]
  MFC: 2000 ng/mL (≈ 7.03 µM)
[2]; 48 h
  MIC90/MIC range 48 h: 1000 ng/mL (≈ 3.52 µM)
[3]; 96 h, 35° C., 4 days
  MIC: < 0.06 ng/mL
[3]
  MFC: 4000 ng/mL (≈ 14.1 µM)
[3]; 48 h
  MIC90/MIC range 48 h: <0.06 ng/mL
[4]
  MIC: 0.5 ng/mL (≈ 0.00176 µM)
[5]
  MFC: < 0.06 ng/mL
[5]; 90% inhibition endpoint, read-out: MIC
  MIC: < 0.06 ng/mL
[6]
  MFC: 1 ng/mL (≈ 0.00352 µM)
[6]; 90% inhibition endpoint
  MIC: 0.5 ng/mL (≈ 0.00176 µM)
[7]
  MFC range against yeasts: <0.06 to 32000 ng/mL
[8]
  MIC90: 50000 ng/mL (≈ 176 µM)
[9]
  CC50: 75000 ng/mL (≈ 264 µM)
[10]
  decrease of vaginal fungal burden (CFU, lavage fluid): 86%
[11]; ATCC24433
  MIC: 1.25 ng/mL (≈ 0.0044 µM)
[12]; ATCC90028
  MIC: 1.25 ng/mL (≈ 0.0044 µM)
[13]; ATCC90030
  MIC: 10 ng/mL (≈ 0.0352 µM)
[14]; ATCC6258
  MIC: 10 ng/mL (≈ 0.0352 µM)
[15]; ATCC22019
  MIC: 2560 ng/mL (≈ 9 µM)
[16]; ATCC90018
  MIC: 2560 ng/mL (≈ 9 µM)
[17]; ATCC750
  MIC: 2.5 ng/mL (≈ 0.00879 µM)

## O=C([O-])CCCCCCC/C=C\C#CC#Cc1ccco1.[K+] [Compound IV″, potassium (Z)-14-(furan-2-yl)tetradeca-9-en-11,13-diynoate]
[18]; C. albicans (n = 20), MIC90, 48 h
  MIC90/MIC range 48 h: 2.5 ng/mL
[18]; Candida albicans, 24 h
  MIC90: 2.5 ng/mL
[19]; C. krusei (n = 27), MIC90, 48 h
  MIC90/MIC range 48 h: 20 ng/mL
[19]; Pichia kudriavzevii, 24 h
  MIC90: 20 ng/mL
[20]; MIC90, 48 h
  MIC90/MIC range 48 h: 30 ng/mL
[20]; Blastomyces dermatitidis, CLSI M38-A2, 50% growth reduction, MIC read at 96 h
  MIC90: 30 ng/mL
[4]
  MIC: 1.25 ng/mL
[11]; C. albicans ATCC 24433, CLSI M27-A3, growth inhibition of 100%, 35° C., 24 hrs
  MIC breakpoints: 2.5 ng/mL
[11]; C. albicans ATCC 24433, NCCLS M27A, 35° C., 24 hrs
  MICs (100% inhibition): 2.5
[11]; ATCC24433, read-out: minimal inhibitory concentrations
  MIC: 2.5 ng/mL
[12]; C. albicans ATCC 90028, CLSI M27-A3, growth inhibition of 100%, 35° C., 24 hrs
  MIC breakpoints: 5 ng/mL
[12]; C. albicans ATCC 90028, NCCLS M27A, 35° C., 24 hrs
  MICs (100% inhibition): 5
[12]; ATCC90028, read-out: minimal inhibitory concentrations
  MIC: 5 ng/mL
[13]; C. glabrata ATCC 90030, CLSI M27-A3, growth inhibition of 100%, 35° C., 24 hrs
  MIC breakpoints: 60 ng/mL
[13]; C. glabrata ATCC 90030, NCCLS M27A, 35° C., 24 hrs
  MICs (100% inhibition): 60
[13]; ATCC90030
  MIC: 20 ng/mL
[13]; ATCC90030, read-out: minimal inhibitory concentrations
  MIC: 60 ng/mL
[14]; C. krusei ATCC 6258, CLSI M27-A3, growth inhibition of 100%, 35° C., 24 hrs
  MIC breakpoints: 60 ng/mL
[14]; C. krusei ATCC 6258, NCCLS M27A, 35° C., 24 hrs
  MICs (100% inhibition): 60
[14]; ATCC6258
  MIC: 20 ng/mL
[14]; ATCC6258, read-out: minimal inhibitory concentrations
  MIC: 60 ng/mL
[15]; C. parapsilosis ATCC 22019, CLSI M27-A3, growth inhibition of 100%, 35° C., 24 hrs
  MIC breakpoints: 10240 ng/mL
[15]; C. parapsilosis ATCC 22019, NCCLS M27A, 35° C., 24 hrs
  MICs (100% inhibition): 10240
[15]; ATCC22019, read-out: minimal inhibitory concentrations
  MIC: 10200 ng/mL
[16]; C. parapsilosis ATCC 90018, CLSI M27-A3, growth inhibition of 100%, 35° C., 24 hrs
  MIC breakpoints: >10240 ng/mL
[16]; C. parapsilosis ATCC 90018, NCCLS M27A, 35° C., 24 hrs
  MICs (100% inhibition): >10240
[16]; ATCC90018, read-out: minimal inhibitory concentrations
  MIC: > 10200 ng/mL
[17]; C. tropicalis ATCC 750, CLSI M27-A3, growth inhibition of 100%, 35° C., 24 hrs
  MIC breakpoints: 7.5 ng/mL
[17]; C. tropicalis ATCC 750, NCCLS M27A, 35° C., 24 hrs
  MICs (100% inhibition): 7.5
[17]; ATCC750
  MIC: 5 ng/mL
[17]; ATCC750, read-out: minimal inhibitory concentrations
  MIC: 7.5 ng/mL
